Like-named read-outs stand apart in the source and are kept apart here.
Assays:
[1] = for response to glucose in vitro: addition of glucose
living cells = experiment: Membrane potential (Rh123 fluorescence quenching) to track D-glucose in living cells; assay type: cell-based; details: glucose 0 to 5 mg/dL (0.28 mM)
Procedure: The fluorescence quenching is an indication of membrane potential changes within living cells with respect to an increase in glucose concentration, as shown in FIG. 17 (glucose from 0 to 400 mg/dL) and FIG. 18 (glucose from 0 to 66 mg/dL).
The saturation point value was expected to be between 0.0 and 2 mg/dL.

PHK cells = experiment: In-vitro detection in PHK cells loaded with reporter, two-photon fluorescent imaging; assay type: cell-based; details: 50 micromolar reporter; glucose increased to 300 mg/dl; EM 440 nm, 2P excitation 705 nm
Procedure: PHK cells were loaded with AF-327d reporter, at 50 micromolar concentration, in buffer. Fluorescence was measured using a two-photon fluorescent imaging system at approximately EM 440 nm, and excitation at (2P) 705 nm. Pictures taken 10 minutes apart show a slight change in fluorescence intensity upon increasing the glucose concentration to 300 mg/dl in the cell buffer medium. This is seen clearly, as a 20% decrease in time course of fluorescence.

[2] = Glucose response rate in stirred cuvette, pH 8 phosphate buffer; details: 100 μL of 300 mg/dL glucose in pH 8 buffer; ex 340 nm, em 440 nm; read every 15 seconds
Procedure: Arg-327 unprotected batches were prepared. One batch was supplied as a yellow powder and the other as a concentrated solution in deuterated methanol. A small sample of these materials was taken and dissolved in 3 ml of pH 8 phosphate buffer. The fluorescence of these materials was excited at 340 nm and the emission monitored at 440 nm. The fluorescence was monitored every 15 seconds in a stirred cuvette. After about 3 minutes 100 μL of 300 mg/dL glucose in pH 8 buffer was added. […] Similar results were obtained for both samples.

[3] = glucose zero to 300 mg/dL, in vitro

Row | Structure (SMILES) | response to glucose in vitro [1] | increase of fluorescence intensity with glucose [1, 3] | other results
1 | O=C(Nc1ccc([N+](=O)[O-])cc1)c1ccc(B(O)O)cc1 [AF-339] | weaker than AF-327 | – | –
2 | COC(=O)c1ccccc1-c1c2ccc(=N)cc-2oc2cc(N)ccc12.Cl [Rh123] | – | – | Rh123 fluorescence with increasing glucose levels (living cells): approximate linear decrease
3 | O=C(Nc1ccc2c(C(F)(F)F)cc(=O)oc2c1)c1ccc(B(O)O)cc1 [AF-327d] | stronger response to glucose than other published compounds | 60% | decrease in time course of fluorescence (PHK cells): 20%; change of absorption spectrum at the excitation wavelength as a function of glucose concentration ([1]; excitation 375 nm): less than 10%; increase of fluorescence intensity with glucose ([1]; glucose range of 200 mg/dL, excitation 375 nm, emission 400-550 nm): at least 40%; glucose response rate (fluorescence after glucose addition) [2]: increased immediately
4 | O=C(Nc1ccc2oc(=O)c3ccccc3c2c1)c1ccc(B(O)O)cc1 [AF-345] | – | 30% | –
5 | O=C(/C=C/c1ccc(B(O)O)cc1)c1cc2ccccc2oc1=O [AF-343] | No fluorescence or glucose effect | – | –
